Reference: patent US20260028365A1 (BIOGEN MA INC., priority 2022, published 2026)
Like-named read-outs stand apart in the source and are kept apart here.

Molecular target: Tyk2 (Homo sapiens (Human), UniProt P29597)
Experiment: pSTAT4 Cell Assay (MSD, NK92 cells)
Format: cell-based
Description: The inhibitory potency of compounds of the disclosure against the Tyk2 kinase activity on STAT4 was evaluated using an MSD-platform plate-based assay format. NK92 cells natively expressing STAT4 and Tyk2 were serum-starved to reduce background phosphorylation levels, then cells were treated compounds for 1 hr with a 10-point four-fold dilution series starting at 10 μM. Cells were then stimulated with 30 ng/mL […] for 15 minutes. […] The data were normalized and the percent activity versus log concentration of compound were fitted with a 4-parameter logistic model to generate to generate IC50 curves.

Sequence of Tyk2 (P29597 whole entry): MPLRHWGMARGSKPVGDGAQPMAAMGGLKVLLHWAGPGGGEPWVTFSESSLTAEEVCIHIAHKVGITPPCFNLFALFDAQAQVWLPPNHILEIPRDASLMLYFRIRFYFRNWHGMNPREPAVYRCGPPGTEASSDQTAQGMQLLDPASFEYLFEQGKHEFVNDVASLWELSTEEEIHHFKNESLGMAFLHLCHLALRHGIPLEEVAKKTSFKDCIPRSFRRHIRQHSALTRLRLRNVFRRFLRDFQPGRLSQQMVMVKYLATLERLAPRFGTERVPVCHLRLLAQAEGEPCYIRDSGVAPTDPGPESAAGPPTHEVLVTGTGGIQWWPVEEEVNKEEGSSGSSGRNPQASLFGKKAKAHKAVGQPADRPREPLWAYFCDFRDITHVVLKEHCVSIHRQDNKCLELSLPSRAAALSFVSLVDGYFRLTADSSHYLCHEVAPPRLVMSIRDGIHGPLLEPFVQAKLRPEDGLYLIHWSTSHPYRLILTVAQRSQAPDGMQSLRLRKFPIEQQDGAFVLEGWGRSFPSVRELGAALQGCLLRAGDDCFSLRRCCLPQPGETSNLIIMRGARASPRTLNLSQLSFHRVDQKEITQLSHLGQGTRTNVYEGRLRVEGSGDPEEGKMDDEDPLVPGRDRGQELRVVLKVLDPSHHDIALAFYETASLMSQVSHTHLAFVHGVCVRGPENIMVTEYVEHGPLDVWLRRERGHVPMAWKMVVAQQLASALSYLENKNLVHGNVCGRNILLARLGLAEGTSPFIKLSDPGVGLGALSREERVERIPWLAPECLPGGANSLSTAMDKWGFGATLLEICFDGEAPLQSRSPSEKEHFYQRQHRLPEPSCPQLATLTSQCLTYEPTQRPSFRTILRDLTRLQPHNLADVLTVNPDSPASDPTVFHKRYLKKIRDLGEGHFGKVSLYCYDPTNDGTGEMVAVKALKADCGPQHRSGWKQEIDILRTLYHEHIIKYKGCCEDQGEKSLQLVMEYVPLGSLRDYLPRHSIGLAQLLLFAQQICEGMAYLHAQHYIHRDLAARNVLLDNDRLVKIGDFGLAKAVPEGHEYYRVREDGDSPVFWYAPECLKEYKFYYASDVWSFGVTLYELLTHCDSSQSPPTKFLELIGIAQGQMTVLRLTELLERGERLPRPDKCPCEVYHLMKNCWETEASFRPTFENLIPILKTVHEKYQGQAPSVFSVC

Structure (SMILES)	IC50 (MSD) [nM]	IC50 [nM]
CC(=O)Nc1cc(Nc2cc(C(C)C)nc(C(C)(F)F)n2)c(-c2ccn(C)n2)cn1 [Example 205, N-(4-((2-(1,1-difluoroethyl)-6-isopropylpyrimidin-4-yl)amino)-5-(1-methyl-1H-pyrazol-3-yl)pyridin-2-yl)acetamide]	≥ 1000	
CC(=O)Nc1cc(Nc2ccnc(C(C)(F)F)n2)c(-c2cccc(C(C)(C)C#N)n2)cn1 [Example 653, N-(6-(2-cyanopropan-2-yl)-4′-((2-(1,1-difluoroethyl)pyrimidin-4-yl)amino)-[2,3′-bipyridin]-6′-yl)acetamide]	10 to 100	
CC(=O)Nc1cc(Nc2cc(C)nc(C(C)(F)F)n2)c(-c2ccc(C(F)F)nn2)cn1 [Example 546, N-(4-((2-(1,1-difluoroethyl)-6-methylpyrimidin-4-yl)amino)-5-(6-(difluoromethyl)pyridazin-3-yl)pyridin-2-yl)acetamide]	≤ 10	
CC(=O)Nc1cc(Nc2ccnc(C(C)(F)F)n2)c(OC(F)F)cn1 [Example 6, N-(4-((2-(1,1-difluoroethyl)pyrimidin-4-yl)amino)-5-(difluoromethoxy)pyridin-2-yl)acetamide]	≥ 1000	
CCc1cc(Nc2cc(NC(C)=O)ncc2-c2ccc(CN3C[C@H]4C[C@@H](C3)O4)cn2)nc(C(C)(F)F)n1 [Example 912, N-(5-(((1R,5S)-6-oxa-3-azabicyclo[3.1.1]heptan-3-yl)methyl)-4′-((2-(1,1-difluoroethyl)-6-ethylpyrimidin-4-yl)amino)-[2,3′-bipyridin]-6′-yl)acetamide]		≤ 10
CC(=O)Nc1cc(Nc2cc(C)nc(C(C)(F)F)n2)c(-c2nccc(N3CCOCC3)n2)cn1 [Example 674, N-(4-((2-(1,1-difluoroethyl)-6-methylpyrimidin-4-yl)amino)-5-(4-morpholinopyrimidin-2-yl)pyridin-2-yl)acetamide]	≥ 1000	
COCc1ccc(-c2cnc(NC(C)=O)cc2Nc2cc(C)nc(C3CCCOC3)n2)nc1 (stereo not drawn) [Example 571, N-(5-(methoxymethyl)-4′-((6-methyl-2-(tetrahydrO2H-pyran-3-yl)pyrimidin-4-yl)amino)-[2,3′-bipyridin]-6′-yl)acetamide]	10 to 100	
CNC(=O)Nc1cc(Nc2cc(C)nc(C(C)(F)F)n2)c(-c2ccc(F)cn2)cn1 [Example 290, 1-(4′-((2-(1,1-difluoroethyl)-6-methylpyrimidin-4-yl)amino)-5-fluoro-[2,3′-bipyridin]-6′-yl)-3-methylurea]	≤ 10	
CC(=O)Nc1cc(Nc2ccnc(C(C)(F)F)n2)c(-c2cnc(C)cn2)cn1 [Example 693, N-(4-((2-(1,1-difluoroethyl)pyrimidin-4-yl)amino)-5-(5-methylpyrazin-2-yl)pyridin-2-yl)acetamide]	10 to 100	
CCc1cc(Nc2cc(NC(C)=O)ncc2-c2cc(CN3C[C@@H]4C[C@H]3CO4)ncn2)nc(C(C)(F)F)n1 [Example 905, N-(5-(6-(((1S,4S)-2-oxa-5-azabicyclo[2.2.1]heptan-5-yl)methyl)pyrimidin-4-yl)-4-((2-(1,1-difluoroethyl)-6-ethylpyrimidin-4-yl)amino)pyridin-2-yl)acetamide]		10 to 100
CC(=O)Nc1cc(Nc2cc(C)nc(C(C)(F)F)n2)c(OCC23CC(C2)C3)cn1 [Example 100, N-(5-(bicyclo[1.1.1]pentan-1-ylmethoxy)-4-((2-(1,1-difluoroethyl)-6-methylpyrimidin-4-yl)amino)pyridin-2-yl)acetamide]	≤ 10	
CCc1cc(Nc2cc(NC(C)=O)ncc2-c2cnc(CN3CCOCC3)cn2)nc(C(C)(F)F)n1 [Example 899, N-(4-((2-(1,1-difluoroethyl)-6-ethylpyrimidin-4-yl)amino)-5-(5-(morpholinomethyl)pyrazin-2-yl)pyridin-2-yl)acetamide]		10 to 100
CC(=O)Nc1cc(Nc2cccc(C(F)CF)n2)c(-c2ccn(C)n2)cn1 (stereo not drawn) [Example 149, N-(4-((6-(1,2-difluoroethyl)pyridin-2-yl)amino)-5-(1-methyl-1H-pyrazol-3-yl)pyridin-2-yl)acetamide]	≤ 10	

Other lines, results leading:

IC50 (MSD) [nM]	IC50 [nM]	Structure (SMILES)
≤ 10		COc1ccc(COc2cnc(NC(C)=O)cc2Nc2cc(C)nc(C(C)(F)F)n2)nc1 [Example 127, N-(4-((2-(1,1-difluoroethyl)-6-methylpyrimidin-4-yl)amino)-5-((5-methoxypyridin-2-yl)methoxy)pyridin-2-yl)acetamide]
10 to 100		COCCOc1cc(-c2cnc(NC(C)=O)cc2Nc2cc(C)nc(C(C)(F)F)n2)ncn1 [Example 249, N-(4-((2-(1,1-difluoroethyl)-6-methylpyrimidin-4-yl)amino)-5-(6-(2-methoxyethoxy)pyrimidin-4-yl)pyridin-2-yl)acetamide]
	10 to 100	CC(=O)Nc1cc(Nc2cc(C)nc(C(C)(F)F)n2)c(-c2ccc(P(C)(C)=O)nn2)cn1 [Example 917, N-(4-((2-(1,1-difluoroethyl)-6-methylpyrimidin-4-yl)amino)-5-(6-(dimethylphosphoryl)pyridazin-3-yl)pyridin-2-yl)acetamide]
≤ 10		CC(=O)Nc1cc(Nc2cc(C)nc(C(C)(F)F)n2)c(OCC2CCCOC2)cn1 (stereo not drawn) [Example 136, N-(4-((2-(1,1-difluoroethyl)-6-methylpyrimidin-4-yl)amino)-5-((tetrahydro-2H-pyran-3-yl)methoxy)pyridin-2-yl)acetamide]
	10 to 100	CCc1cc(Nc2cc(NC(C)=O)ncc2-c2nccc(CN3C[C@H]4C[C@@H]3CO4)n2)nc(C(C)(F)F)n1 [Example 907, N-(5-(4-(((1R,4R)-2-oxa-5-azabicyclo[2.2.1]heptan-5-yl)methyl)pyrimidin-2-yl)-4-((2-(1,1-difluoroethyl)-6-ethylpyrimidin-4-yl)amino)pyridin-2-yl)acetamide]
10 to 100		CC(=O)Nc1cc(Nc2cc(C)nc(C(C)(F)F)n2)c(OCc2ccc(C)cn2)cn1 [Example 130, N-(4-((2-(1,1-difluoroethyl)-6-methylpyrimidin-4-yl)amino)-5-((5-methylpyridin-2-yl)methoxy)pyridin-2-yl)acetamide]
	10 to 100	CCc1cc(Nc2cc(NC(C)=O)ncc2-c2ccnc(CN3C[C@H]4C[C@@H](C3)O4)n2)nc(C(C)(F)F)n1 [Example 913, N-(5-(2-(((1R,5S)-6-oxa-3-azabicyclo[3.1.1]heptan-3-yl)methyl)pyrimidin-4-yl)-4-((2-(1,1-difluoroethyl)-6-ethylpyrimidin-4-yl)amino)pyridin-2-yl)acetamide]
10 to 100		CC(=O)Nc1cc(Nc2cc(C)nc(C(C)(F)F)n2)c(OCc2cc(C)cc(C)n2)cn1 [Example 123, N-(4-((2-(1,1-difluoroethyl)-6-methylpyrimidin-4-yl)amino)-5-((4,6-dimethylpyridin-2-yl)methoxy)pyridin-2-yl)acetamide]
10 to 100		COc1cnc(C(C)(F)F)nc1Nc1cc(NC(C)=O)ncc1-c1ccn(C)n1 [Example 590, N-(4-((2-(1,1-difluoroethyl)-5-methoxypyrimidin-4-yl)amino)-5-(1-methyl-1H-pyrazol-3-yl)pyridin-2-yl)acetamide]
	≤ 10	CCc1cc(Nc2cc(NC(C)=O)ncc2-c2ccc(F)c(CN3C[C@H]4C[C@@H](C3)O4)n2)nc(C(C)(F)F)n1 [Example 915, N-(6-(((1R,5S)-6-oxa-3-azabicyclo[3.1.1]heptan-3-yl)methyl)-4′-((2-(1,1-difluoroethyl)-6-ethylpyrimidin-4-yl)amino)-5-fluoro-[2,3′-bipyridin]-6′-yl)acetamide]
≤ 10		COCCOc1cc(Nc2cc(NC(C)=O)ncc2-c2ccn(C)n2)nc(C(C)(F)F)c1 [Example 210, N-(4-((6-(1,1-difluoroethyl)-4-(2-methoxyethoxy)pyridin-2-yl)amino)-5-(1-methyl-1H-pyrazol-3-yl)pyridin-2-yl)acetamide]
≤ 10		CC(=O)Nc1cc(Nc2cc(C)nc(C(C)(F)F)n2)c(-c2ccc([C@@H]3COCCN3C)cn2)cn1 (single isomer, unassigned) [Example 646, (R)-N-(4′-((2-(1,1-difluoroethyl)-6-methylpyrimidin-4-yl)amino)-5-(4-methylmorpholin-3-yl)-[2,3′-bipyridin]-6′-yl)acetamide or (S)-N-(4′-((2-(1,1-difluoroethyl)-6-methylpyrimidin-4-yl)amino)-5-(4-methylmorpholin-3-yl)-[2,3′-bipyridin]-6′-yl)acetamide]
10 to 100		CC(=O)Nc1cc(Nc2cc(C)nc(C(C)(F)F)n2)c(OCc2ccc(C#N)cn2)cn1 [Example 131, N-(5-((5-cyanopyridin-2-yl)methoxy)-4-((2-(1,1-difluoroethyl)-6-methylpyrimidin-4-yl)amino)pyridin-2-yl)acetamide]
≤ 10		CC(=O)Nc1cc(Nc2cc(C)nc(C(C)(F)F)n2)c(-c2ccnc(N(C)C)n2)cn1 [Example 629, N-(4-((2-(1,1-difluoroethyl)-6-methylpyrimidin-4-yl)amino)-5-(2-(dimethylamino)pyrimidin-4-yl)pyridin-2-yl)acetamide]
≤ 10		CC(=O)Nc1cc(Nc2cc(C)nc(C(C)(F)F)n2)c(OCc2cnco2)cn1 [Example 122, N-(4-((2-(1,1-difluoroethyl)-6-methylpyrimidin-4-yl)amino)-5-(oxazol-5-ylmethoxy)pyridin-2-yl)acetamide]
≥ 1000		COc1ccc(Oc2cnc(NC(C)=O)cc2Nc2cc(C)nc(C(C)(F)F)n2)nn1 [Example 358, N-(4-((2-(1,1-difluoroethyl)-6-methylpyrimidin-4-yl)amino)-5-((6-methoxypyridazin-3-yl)oxy)pyridin-2-yl)acetamide]
10 to 100		COc1cccc(COc2cnc(NC(C)=O)cc2Nc2cc(C)nc(C(C)(F)F)n2)n1 [Example 132, N-(4-((2-(1,1-difluoroethyl)-6-methylpyrimidin-4-yl)amino)-5-((6-methoxypyridin-2-y1)methoxy)pyridin-2-yl)acetamide]
